Data set [1] has as its target T1, isoleucyl-tRNA synthetase (IleRS) (Trypanosoma brucei, UniProt Q38A55).
T1 sequence (Q38A55 67-1143): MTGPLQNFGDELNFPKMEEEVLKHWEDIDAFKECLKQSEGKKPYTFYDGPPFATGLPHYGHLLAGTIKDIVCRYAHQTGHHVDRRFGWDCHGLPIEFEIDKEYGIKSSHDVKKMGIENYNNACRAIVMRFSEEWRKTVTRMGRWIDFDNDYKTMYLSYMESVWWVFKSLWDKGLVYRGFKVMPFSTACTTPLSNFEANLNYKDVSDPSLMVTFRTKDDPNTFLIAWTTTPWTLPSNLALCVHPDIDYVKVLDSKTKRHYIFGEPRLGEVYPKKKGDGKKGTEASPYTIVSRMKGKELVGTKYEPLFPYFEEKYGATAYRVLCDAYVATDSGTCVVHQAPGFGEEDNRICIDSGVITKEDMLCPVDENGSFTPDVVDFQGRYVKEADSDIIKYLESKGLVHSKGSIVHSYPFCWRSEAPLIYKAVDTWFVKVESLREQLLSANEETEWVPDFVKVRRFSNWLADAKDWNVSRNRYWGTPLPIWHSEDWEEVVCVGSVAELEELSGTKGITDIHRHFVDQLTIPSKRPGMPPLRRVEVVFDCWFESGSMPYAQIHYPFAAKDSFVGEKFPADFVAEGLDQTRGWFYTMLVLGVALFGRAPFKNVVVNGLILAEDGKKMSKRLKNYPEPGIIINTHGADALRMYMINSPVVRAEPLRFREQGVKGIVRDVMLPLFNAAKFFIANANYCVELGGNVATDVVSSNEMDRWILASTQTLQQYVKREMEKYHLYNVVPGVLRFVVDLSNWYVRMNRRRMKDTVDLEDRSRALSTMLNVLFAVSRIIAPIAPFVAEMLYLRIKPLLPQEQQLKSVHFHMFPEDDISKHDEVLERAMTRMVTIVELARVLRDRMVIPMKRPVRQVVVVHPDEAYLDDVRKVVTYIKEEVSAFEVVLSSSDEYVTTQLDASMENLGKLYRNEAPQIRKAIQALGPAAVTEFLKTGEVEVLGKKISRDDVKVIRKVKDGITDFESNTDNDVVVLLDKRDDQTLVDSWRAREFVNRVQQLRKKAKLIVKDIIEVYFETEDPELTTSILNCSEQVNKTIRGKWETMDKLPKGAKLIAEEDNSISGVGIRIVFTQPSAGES
Kind of data set: malachite green aminoacylation assay coupled to pyrophosphatase, dose response. Format: biochemical.

Substrate in data set [2]: CC[C@H](C)[C@H](N)C(=O)O
Kind of data set: Michaelis-Menten kinetics. Format: biochemical, Trypanosoma brucei.

As usually defined, the IC50 is the point on the concentration scale where inhibition reaches its midpoint. A high value points to weaker potency in that assay. As for `CC(C)(C)[Si](C)(C)OCC1OC(n2cnc3c(N)ncnc32)C(O)C1O` (centres unmarked) [NSC616354], in data set [1], half-maximal inhibition (IC50) required 600 nM.

B1: isoleucyl-tRNA synthetase (IleRS) (Trypanosoma brucei brucei TREU927) (protein)
chain: MTGPLQNFGDELNFPKMEEEVLKHWEDIDAFKECLKQSEGKKPYTFYDGPPFATGLPHYGHLLAGTIKDIVCRYAHQTGHHVDRRFGWDCHGLPIEFEIDKEYGIKSSHDVKKMGIENYNNACRAIVMRFSEEWRKTVTRMGRWIDFDNDYKTMYLSYMESVWWVFKSLWDKGLVYRGFKVMPFSTACTTPLSNFEANLNYKDVSDPSLMVTFRTKDDPNTFLIAWTTTPWTLPSNLALCVHPDIDYVKVLDSKTKRHYIFGEPRLGEVYPKKKGDGKKGTEASPYTIVSRMKGKELVGTKYEPLFPYFEEKYGATAYRVLCDAYVATDSGTCVVHQAPGFGEEDNRICIDSGVITKEDMLCPVDENGSFTPDVVDFQGRYVKEADSDIIKYLESKGLVHSKGSIVHSYPFCWRSEAPLIYKAVDTWFVKVESLREQLLSANEETEWVPDFVKVRRFSNWLADAKDWNVSRNRYWGTPLPIWHSEDWEEVVCVGSVAELEELSGTKGITDIHRHFVDQLTIPSKRPGMPPLRRVEVVFDCWFESGSMPYAQIHYPFAAKDSFVGEKFPADFVAEGLDQTRGWFYTMLVLGVALFGRAPFKNVVVNGLILAEDGKKMSKRLKNYPEPGIIINTHGADALRMYMINSPVVRAEPLRFREQGVKGIVRDVMLPLFNAAKFFIANANYCVELGGNVATDVVSSNEMDRWILASTQTLQQYVKREMEKYHLYNVVPGVLRFVVDLSNWYVRMNRRRMKDTVDLEDRSRALSTMLNVLFAVSRIIAPIAPFVAEMLYLRIKPLLPQEQQLKSVHFHMFPEDDISKHDEVLERAMTRMVTIVELARVLRDRMVIPMKRPVRQVVVVHPDEAYLDDVRKVVTYIKEEVSAFEVVLSSSDEYVTTQLDASMENLGKLYRNEAPQIRKAIQALGPAAVTEFLKTGEVEVLGKKISRDDVKVIRKVKDGITDFESNTDNDVVVLLDKRDDQTLVDSWRAREFVNRVQQLRKKAKLIVKDIIEVYFETEDPELTTSILNCSEQVNKTIRGKWETMDKLPKGAKLIAEEDNSISGVGIRIVFTQPSAGES
By Km is commonly meant the substrate concentration at which the rate is half of its maximum. Regarding B1, the Km in data set [2] came out at 39.7 µM.
